Laboratory results from patent publication US7968526B2, “Antisense oligonucleotides directed to ribonucleotide reductase R2 and uses thereof in the treatment of cancer” (Lorus Therapeutics Inc., priority 2003, dated 2011).

Legend:
[1] = system: Hela S3 human cervix epitheloid carcinoma cells; experiment: Hela S3 hydroxyurea resistant cervix carcinoma xenograft in SCID mice; assay type: in vivo, human cells in mice
Procedure: BxPC-3 is a gemcitabine resistant call line. […] Gemcitabine was administered intravenously every three days at a dose of 100 mg/kg. Antitumour activities were estimated by the inhibition of tumour volume, which was measured with caliper. Each point represents mean tumour volume calculated from 10 animals per experimental group. […] Hela S3 is a hydroxyurea resistant cell line. […] Hydroxyurea was administered intraperitoneally every day at a dose of 250 mg/kg for 10 days. Cisplatin was administered intravenously once a week for three weeks at a dose of 4 mg/kg. Antitumour activities were estimated by the inhibition of tumour volume, which was measured with caliper. Each point represents mean tumour volume calculated from 10 animals per experimental group. […] Cisplatin was administered intravenously once a week for three weeks at a dose of 4 mg/kg. Taxol was administered intravenously once a week for three weeks at a dose of 10 mg/kg. Antitumour activities were estimated by the inhibition of tumour volume, which was measured with caliper. Each point represents mean tumour volume calculated from 10 animals per experimental group. […] Taxol was administered i.p. once a week at a dose of 10 mg/kg. Antitumour activities were estimated by the inhibition of tumour volume (FIG. 12A), which was measured with calipers. Each point represents mean tumour volume calculated from 10 animals per experimental group. Animals were sacrificed and tumour weights taken at the end of the study (FIG. 12C). […] The effects of combined treatment were greater than either treatment alone. […] Cisplatin was administered intravenously once a week for four weeks at a dose of 4 mg/kg. Taxol was administered intravenously once a week for four weeks at a dose of 20 mg/kg. Antitumour activities were estimated by the inhibition of tumour volume, which was measured with caliper. Each point represents mean tumour volume calculated from 9-10 animals per experimental group. […] Cisplatin was administered intravenously once a week for four weeks at a dose of 4 mg/kg. Antitumour activities were estimated by the inhibition of tumour volume, which was measured with caliper. Each point represents mean tumour volume calculated from 10 animals per experimental group. At the end of the study the animals were sacrificed and tumours weighed. […] Taxol was administered i.p. once a week at a dose of 10 mg/kg. Anti-tumour activity was estimated by the inhibition of tumour volume, which was measured with caliper. Each point represents mean tumour volume calculated from 10 animals per experimental group. In addition animals were sacrificed and tumour weights taken at the end of the study. […] CPT-11 was administered i.p. for 5 days at a dose of 20 mg/kg/day. Antitumour activities were estimated by the inhibition of tumour volume, which was measured with caliper. Each point represents mean tumour volume calculated from 10 animals per experimental group. Tumour weights were measured after animals were sacrificed at the end of the treatment. These cells are not resistant to CPT-11 which was used as a positive control.

[2] = system: MDA-MB-231 human breast cancer cells; experiment: MDA-MB-231 breast tumour xenograft in CD-1 nude mice, combination with taxol or doxorubicin (1.7); assay type: in vivo, human cells in mice; settings: MDA-MB-231 (breast), CD-1; SEQ ID NO:1 10 mg/kg i.v. every other day; Taxol 10 mg/kg i.v. weekly; doxorubicin 5 mg/kg i.v. weekly
Procedure: (§1) After 52 days the mice were sacrificed and the tumours weighed. […] Mitoxantrone was administered intravenously once at the beginning of the treatments at a dose of 2 mg/kg (FIG. 4A) or once a week for four weeks at a reduced dose of 0.8 mg/kg (FIG. 4B). All treatments were stopped at day 50 (FIG. 4A) or 48 (FIG. 4B), respectively. […] Mitoxantrone was administered intravenously once at the beginning of the treatments at a dose of 2 mg/kg (FIG. 5A) or once a week for four weeks at a reduced dose of 0.8 mg/kg (FIG. 5B). All treatments were stopped at day 42 (FIG. 5A) or 38 (FIG. 5B), respectively. […] A2058 is a metastatic melanoma cell line. […] All treatments were stopped at day 24. […] Taxol was administered intravenously once a week at a dose of 10 mg/kg for three (FIG. 7A) or four weeks (FIG. 7C). Doxorubicin was administered intravenously once a week at a dose of 5 mg/kg for first three weeks (FIG. 7A) or for two weeks (FIG. 7C). All treatments were stopped at day 33 (FIG. 7A) or at day 26 (FIG. 7C), respectively. […] In FIG. 7C, antitumour activities were estimated by the inhibition of tumour volume, which was measured with calipers. Each point represents mean tumour volume calculated from 10 animals per experimental group. […] Taxol was administered intravenously once a week for first three weeks and intraperitoneally once a week for next two weeks at a dose of 10 mg/kg. Cisplatin was administered intravenously once a week for first three weeks and intraperitoneally once a week for next two weeks at a dose of 4 mg/kg. All treatments were stopped at day 40. Antitumour activities were estimated by the inhibition of tumour volume, which was measured with caliper. Each point represents mean tumour volume calculated from 9 animals per experimental group.

[3] = system: SK-OV-3 human ovary adenocarcinoma cells; experiment: SK-OV-3 ovary tumour xenograft in CD-1 nude mice, combination with taxol or cisplatin (1.8); assay type: in vivo, human cells in mice; settings: SK-OV-3 (ovary), CD-1; SEQ ID NO:1 10 mg/kg i.v. every other day 17 times; Taxol 10 mg/kg weekly; Cisplatin 4 mg/kg weekly
Procedure: as §1

[4] = system: MDA-CDDP-S4 human in vivo-selected Cisplatin-resistant breast adenocarcinoma cells; experiment: MDA-CDDP-S4 Cisplatin-resistant breast adenocarcinoma, fat pad, SCID mice (2.3); design: species or system human cells in mice; settings: MDA-CDDP-S4 (breast), Cisplatin resistant, SCID; SEQ ID NO:1 10 mg/kg i.v. every other day 9 times; Taxol 10 mg/kg, Cisplatin 4 mg/kg i.v. weekly x3
Procedure: (§2) BxPC-3 is a gemcitabine resistant call line. […] Gemcitabine was administered intravenously every three days at a dose of 100 mg/kg. Antitumour activities were estimated by the inhibition of tumour volume, which was measured with caliper. Each point represents mean tumour volume calculated from 10 animals per experimental group. […] Hela S3 is a hydroxyurea resistant cell line. […] Hydroxyurea was administered intraperitoneally every day at a dose of 250 mg/kg for 10 days. Cisplatin was administered intravenously once a week for three weeks at a dose of 4 mg/kg. Antitumour activities were estimated by the inhibition of tumour volume, which was measured with caliper. Each point represents mean tumour volume calculated from 10 animals per experimental group. […] Cisplatin was administered intravenously once a week for three weeks at a dose of 4 mg/kg. Taxol was administered intravenously once a week for three weeks at a dose of 10 mg/kg. Antitumour activities were estimated by the inhibition of tumour volume, which was measured with caliper. Each point represents mean tumour volume calculated from 10 animals per experimental group. […] Taxol was administered i.p. once a week at a dose of 10 mg/kg. Antitumour activities were estimated by the inhibition of tumour volume (FIG. 12A), which was measured with calipers. Each point represents mean tumour volume calculated from 10 animals per experimental group. Animals were sacrificed and tumour weights taken at the end of the study (FIG. 12C). […] Cisplatin was administered intravenously once a week for four weeks at a dose of 4 mg/kg. Taxol was administered intravenously once a week for four weeks at a dose of 20 mg/kg. Antitumour activities were estimated by the inhibition of tumour volume, which was measured with caliper. Each point represents mean tumour volume calculated from 9-10 animals per experimental group. […] Cisplatin was administered intravenously once a week for four weeks at a dose of 4 mg/kg. Antitumour activities were estimated by the inhibition of tumour volume, which was measured with caliper. Each point represents mean tumour volume calculated from 10 animals per experimental group. At the end of the study the animals were sacrificed and tumours weighed. […] Taxol was administered i.p. once a week at a dose of 10 mg/kg. Anti-tumour activity was estimated by the inhibition of tumour volume, which was measured with caliper. Each point represents mean tumour volume calculated from 10 animals per experimental group. In addition animals were sacrificed and tumour weights taken at the end of the study. […] CPT-11 was administered i.p. for 5 days at a dose of 20 mg/kg/day. Antitumour activities were estimated by the inhibition of tumour volume, which was measured with caliper. Each point represents mean tumour volume calculated from 10 animals per experimental group. Tumour weights were measured after animals were sacrificed at the end of the treatment. These cells are not resistant to CPT-11 which was used as a positive control.

[5] = system: MDA-CDDP-S4 human in vivo-selected Cisplatin-resistant breast adenocarcinoma cells; experiment: MDA-CDDP-S4 Cisplatin-resistant breast adenocarcinoma, fat pad, CB-17 SCID mice, combination with Taxol (2.4); design: species or system human cells in mice; settings: MDA-CDDP-S4 (breast), Cisplatin resistant, SCID, SEQ ID NO:1 10 mg/kg i.v. every other day, Taxol 10 mg/kg i.p. weekly
Procedure: as §2

[6] = system: MDA-MB435-To.1 human Taxol-resistant breast adenocarcinoma cells; experiment: MDA-MB435-To.1 Taxol-resistant breast adenocarcinoma, fat pad, SCID mice (2.5); assay type: in vivo, human cells in mice
Procedure: as §2

[7] = system: Human taxol-resistant promyelocytic leukaemia cells (HL-60); experiment: HL-60 taxol-resistant promyelocytic leukaemia tumour in SCID mice (2.7); assay type: in vivo, human cells in mice; settings: SEQ ID NO:1 10 mg/kg i.v. every other day
Procedure: BxPC-3 is a gemcitabine resistant call line. […] Gemcitabine was administered intravenously every three days at a dose of 100 mg/kg. Antitumour activities were estimated by the inhibition of tumour volume, which was measured with caliper. Each point represents mean tumour volume calculated from 10 animals per experimental group. […] Hela S3 is a hydroxyurea resistant cell line. […] Hydroxyurea was administered intraperitoneally every day at a dose of 250 mg/kg for 10 days. Cisplatin was administered intravenously once a week for three weeks at a dose of 4 mg/kg. Antitumour activities were estimated by the inhibition of tumour volume, which was measured with caliper. Each point represents mean tumour volume calculated from 10 animals per experimental group. […] Cisplatin was administered intravenously once a week for three weeks at a dose of 4 mg/kg. Taxol was administered intravenously once a week for three weeks at a dose of 10 mg/kg. Antitumour activities were estimated by the inhibition of tumour volume, which was measured with caliper. Each point represents mean tumour volume calculated from 10 animals per experimental group. […] Taxol was administered i.p. once a week at a dose of 10 mg/kg. Antitumour activities were estimated by the inhibition of tumour volume (FIG. 12A), which was measured with calipers. Each point represents mean tumour volume calculated from 10 animals per experimental group. Animals were sacrificed and tumour weights taken at the end of the study (FIG. 12C). […] Cisplatin was administered intravenously once a week for four weeks at a dose of 4 mg/kg. Taxol was administered intravenously once a week for four weeks at a dose of 20 mg/kg. Antitumour activities were estimated by the inhibition of tumour volume, which was measured with caliper. Each point represents mean tumour volume calculated from 9-10 animals per experimental group. […] Cisplatin was administered intravenously once a week for four weeks at a dose of 4 mg/kg. Antitumour activities were estimated by the inhibition of tumour volume, which was measured with caliper. Each point represents mean tumour volume calculated from 10 animals per experimental group. At the end of the study the animals were sacrificed and tumours weighed. […] Taxol was administered i.p. once a week at a dose of 10 mg/kg. Anti-tumour activity was estimated by the inhibition of tumour volume, which was measured with caliper. Each point represents mean tumour volume calculated from 10 animals per experimental group. […] Antitumour activities were estimated by the inhibition of tumour volume, which was measured with caliper. Each point represents mean tumour volume calculated from 10 animals per experimental group. Tumour weights were measured after animals were sacrificed at the end of the treatment. […]

Row | SMILES | Tumour weight as % of saline control ([1]; Hela S3 (cervix), hydroxyurea resistant, SCID, SEQ ID NO:1 10 mg/kg i.v. every other day 6 times, Hydroxyurea 250 mg/kg i.p. daily 10 days, Cisplatin 4 mg/kg i.v. weekly x3) [%] | Antitumour effect (tumour volume, FIG. 10) ([1]; Hela S3 hydroxyurea resistant, SCID mice, SEQ ID NO:1 10 mg/kg i.v. every other day, Hydroxyurea 250 mg/kg i.p. daily, Cisplatin 4 mg/kg i.v. weekly) | Tumour weight as % of saline control [2] [%] | tumour volume data as percentage of saline control [3] [%] | Tumour weight as % of saline control [4] [%] | Tumour weight as % of saline control ([5]; first of two printed values (study and repeat)) [%] | Tumour weight as % of saline control ([5]; second of two printed values (study and repeat)) [%] | Tumour weight as % of saline control ([6]; MDA-MB435-To.1 (breast), Taxol resistant, SCID, SEQ ID NO:1 10 mg/kg i.v. every other day 15 times, Taxol 20 mg/kg, Cisplatin 4 mg/kg i.v. weekly x4) [%] | Antitumour effect (FIG. 13) ([6]; MDA-MB435-To.1 Taxol-resistant, SCID mice, SEQ ID NO:1 10 mg/kg i.v. every other day, Cisplatin 4 mg/kg, Taxol 20 mg/kg i.v. weekly) | Tumour weight as % of saline control ([7]; HL-60 (leukemia), Taxol resistant, SCID, Taxol 10 mg/kg i.p. weekly) [%] | Antitumour effect (FIG. 15) ([7]; HL-60 taxol-resistant, SCID mice, taxol 10 mg/kg i.p. weekly)
1 | NC(=O)NO [Hydroxyurea (HU), Hydroxyurea, reference compound] | 92 | ineffective against Hydroxyurea-resistant tumour | – | – | – | – | – | – | – | – | –
2 | CC(=O)O[C@H]1C(=O)[C@@]2(C)[C@H]([C@H](OC(=O)c3ccccc3)[C@]3(O)C[C@H](OC(=O)[C@H](O)[C@@H](NC(=O)c4ccccc4)c4ccccc4)C(C)=C1C3(C)C)[C@]1(OC(C)=O)CO[C@@H]1C[C@@H]2O [Taxol, Paclitaxel, reference compound] | – | – | 58 | 49 | 32 | 26 | 61 | 109 | ineffective against Taxol-resistant tumour | 119 | no effect on tumour growth or weight
